In patent US10933063B2 (priority 2017, dated 2021) one finds IC50 data, which are given here for 13 compounds.

As usually defined, the IC50 is the midpoint of a concentration-inhibition curve. Low readings indicate greater potency, high ones weaker potency.

The structures appear in SMILES notation.

For this experiment, the target named is BTK (Homo sapiens (Human), UniProt Q06187). The experiment can be described thus: biochemical.
Sequence of BTK (Q06187 whole entry, looked up, species assumed): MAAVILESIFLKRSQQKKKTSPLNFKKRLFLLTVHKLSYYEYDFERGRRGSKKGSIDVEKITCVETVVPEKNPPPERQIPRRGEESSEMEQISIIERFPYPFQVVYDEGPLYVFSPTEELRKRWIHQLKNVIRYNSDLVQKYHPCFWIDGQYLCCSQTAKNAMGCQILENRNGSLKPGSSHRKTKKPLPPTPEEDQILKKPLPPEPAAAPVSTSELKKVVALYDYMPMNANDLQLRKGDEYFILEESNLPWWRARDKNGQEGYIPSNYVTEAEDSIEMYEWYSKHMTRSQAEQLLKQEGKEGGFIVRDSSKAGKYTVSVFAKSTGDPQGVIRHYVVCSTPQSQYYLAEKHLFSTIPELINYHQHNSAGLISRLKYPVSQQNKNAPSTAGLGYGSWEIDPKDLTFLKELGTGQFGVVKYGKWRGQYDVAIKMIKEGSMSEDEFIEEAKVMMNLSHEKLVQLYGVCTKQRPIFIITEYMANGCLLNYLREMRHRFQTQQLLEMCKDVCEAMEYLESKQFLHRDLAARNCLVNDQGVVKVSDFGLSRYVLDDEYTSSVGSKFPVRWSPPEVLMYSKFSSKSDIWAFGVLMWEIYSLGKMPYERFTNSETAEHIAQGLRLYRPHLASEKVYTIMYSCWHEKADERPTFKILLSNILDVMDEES

In turn, `CC#CC(=O)N1CCC[C@H]1c1nc(-c2ccc(OCc3ccc(F)c(F)c3)cc2)c2cnccn12` [Example 134, (S)-1-(2-(1-(4-((3,4-difluorobenzyl)oxy)phenyl)imidazo[1,5-a]pyrazin-3-yl)pyrrolidin-1-yl)but-2-yn-1-one] gave an IC50 of 1000 to 10000 nM.
`C=CC(=O)N1CCC[C@H]1c1nc(-c2ccc(OCc3cccc(F)c3)cc2)c2cnccn12` [Example 135, (S)-1-(2-(1-(4-((3-fluorobenzyl)oxy)phenyl)imidazo[1,5-a]pyrazin-3-yl)pyrrolidin-1-yl)prop-2-en-1-one] registered an IC50 of 10 to 100 nM.
With `CC#CC(=O)N1CCC[C@H]1c1nc(-c2ccc(OCc3c(F)cccc3F)cc2)c2cnccn12` [Example 137, (S)-1-(2-(1-(4-((2,6-difluorobenzyl)oxy)phenyl)imidazo[1,5-a]pyrazin-3-yl)pyrrolidin-1-yl)bul-2-yn-1-one] the figure was 1000 to 10000 nM.
In the case of `CC#CC(=O)N1CCC[C@H]1c1nc(-c2ccc(OCc3cccc(F)c3)cc2)c2cnccn12` [Example 138, (S)-1-(2-(1-(4-((3-fluorobenzyl)oxy)phenyl)imidazo[1,5-a]pyrazin-3-yl)pyrrolidin-1-yl)but-2-yn-1-one] it was 1000 to 10000 nM.
Take `C=CC(=O)N1CCCC[C@H]1c1nc(-c2ccc(OCc3cccc(F)c3)cc2)c2c(C)nccn12` [Example 139, (S)-1-(2-(1-(4-((3-fluorobenzyl)oxy)phenyl)-8-methylimidazo[1,5-a]pyrazin-3-yl)piperidin-1-yl)prop-2-en-1-one]: the 50% inhibitory concentration (IC50) fell in the range of 10 to 100 nM.
With `CC#CC(=O)N1CCCC[C@H]1c1nc(-c2ccc(OCc3cccc(F)c3)cc2)c2c(C)nccn12` [Example 140, (S)-1-(2-(1-(4-((3-fluorobenzyl)oxy)phenyl)-8-methylimidazo[1,5-a]pyrazin-3-yl)piperidin-1-yl)but-2-yn-1-one] the figure was 100 to 1000 nM.
Compound `C=CC(=O)N1CCC[C@H]1c1nc(-c2ccc(OCc3cccc(Cl)c3)cc2)c2cnccn12` [Example 141, (S)-1-(2-(1-(4-((3-chlorobenzyl)oxy)phenyl)imidazo[1,5-a]pyrazin-3-yl)pyrrolidin-1-yl)prop-2-en-1-one] came in with an IC50 of 10 to 100 nM.
Regarding `CC#CC(=O)N1CCC[C@H]1c1nc(-c2ccc(OCc3cccc(Cl)c3)cc2)c2cnccn12` [Example 142, (S)-1-(2-(1-(4-((3-chlorobenzyl)oxy)phenyl)imidazo[1,5-a]pyrazin-3-yl)pyrrolidin-1-yl)but-2-yn-1-one], the half-maximal inhibitory concentration (IC50) is 1000 to 10000 nM.
In the case of `C=CC(=O)N1CCC[C@H]1c1nc(-c2ccc(COc3ccccc3)cc2)c2cnccn12` [Example 143, (S)-1-(2-(1-(4-(phenoxymethyl)phenyl)imidazo[1,5-a]pyrazin-3-yl)pyrrolidin-1-yl)prop-2-en-1-one] it was 10 to 100 nM; in that of `CC#CC(=O)N1CCC[C@H]1c1nc(-c2ccc(COc3ccccc3)cc2)c2cnccn12` [Example 144, (S)-1-(2-(1-(4-(phenoxymethyl)phenyl)imidazo[1,5-a]pyrazin-3-yl)pyrrolidin-1-yl)but-2-yn-1-one], 1000 to 10000 nM; in that of `C=CC(=O)N1CCC[C@H]1c1nc(-c2ccc(COc3cccc(F)c3)cc2)c2cnccn12` [Example 145, (S)-1-(2-(1-(4-((3-fluorophenoxy)methyl)phenyl)imidazo[1,5-a]pyrazin-3-yl)pyrrolidin-1-yl)prop-2-en-1-one], 10 to 100 nM.
In the case of `CC#CC(=O)N1CCC[C@H]1c1nc(-c2ccc(COc3ccccc3F)cc2)c2cnccn12` [Example 146, (S)-1-(2-(1-(4-((2-fluorophenoxy)methyl)phenyl)imidazo[1,5-a]pyrazin-3-yl)pyrrolidin-1-yl)but-2-yn-1-one] it was 1000 to 10000 nM; in that of `CC#CC(=O)N1CCC[C@H]1c1nc(-c2ccc(COc3cccc(F)c3)cc2)c2cnccn12` [Example 147, (S)-1-(2-(1-(4-((3-fluorophenoxy)methyl)phenyl)imidazo[1,5-a]pyrazin-3-yl)pyrrolidin-1-yl)but-2-yn-1-one], 1000 to 10000 nM.
